Where “and” joins values, the source holds several entries; their conditions need not be identical. Identical values can stand only once.
Assay: Bench-top (short-term) stability test in human plasma, 8 hours at ambient temperature
Assay type: physicochemical
Settings: for Change in concentration [%]: 8 h at RT vs Baseline; for Accuracy: single QC replicate; for Change in plasma concentration after 8 hours storage at room temperature: human plasma QC samples, 8 hours at room temperature, vs freshly processed QC
Excerpt: Each analyte had to be stable in human plasma for at least three freeze-thaw cycles (for repeated sample preparations) and at ambient temperature for at least eight hours (maximal duration of sample preparation). Measured samples should be stable for a second injection when the first analytical run was not valid. The analytes had to be stable in the matrix at the intended storage temperatures and study duration.
An analyte was considered stable at one of the above tests when no increase or decrease of the analyte concentration of more than 15% for the mean of at least three analyzed QC samples at low, medium and at high concentration was observed.
Seven of each LLOQ, QCLOW, QCMID, QCHIGH, and ULOQ samples in human plasma were thawed at ambient temperature and kept at this temperature for 8 hours. Afterwards, the samples were worked up and analyzed. The values of the concentrations in the “short-term” samples were compared with freshly processed QC samples. Concentrations were calculated based on two freshly prepared CAL sets measured at the beginning and the end of the validation run.

| Compound | Accuracy, Intra-assay Mean (LLOQ: 10 pg/ml, 8 h at RT) [%] | Change in concentration [%] (LLOQ: 10 pg/ml) | Accuracy (LLOQ: 10 pg/ml, 8 h at RT) | Accuracy, Intra-assay Mean (LLOQ: 10 pg/ml, Baseline) [%] | Accuracy (LLOQ: 10 pg/ml, Baseline) | Accuracy, Intra-assay Mean (QCHIGH: 1000 pg/ml, 8 h at RT) [%] | Change in concentration [%] (QCHIGH: 1000 pg/ml) | Accuracy (QCHIGH: 1000 pg/ml, 8 h at RT) | Accuracy, Intra-assay Mean (QCHIGH: 1000 pg/ml, Baseline) [%] | Accuracy (QCHIGH: 1000 pg/ml, Baseline) | Accuracy, Intra-assay Mean (QCLOW: 25 pg/ml, 8 h at RT) [%] | Change in concentration [%] (QCLOW: 25 pg/ml) | Accuracy (QCLOW: 25 pg/ml, 8 h at RT) | Accuracy, Intra-assay Mean (QCLOW: 25 pg/ml, Baseline) [%] | Accuracy (QCLOW: 25 pg/ml, Baseline) | Accuracy, Intra-assay Mean (QCMID: 100 pg/ml, 8 h at RT) [%] | Change in concentration [%] (QCMID: 100 pg/ml) | Accuracy (QCMID: 100 pg/ml, 8 h at RT) | Accuracy, Intra-assay Mean (QCMID: 100 pg/ml, Baseline) [%] | Accuracy (QCMID: 100 pg/ml, Baseline) | also measured |
| --- | --- | --- | --- | --- | --- | --- | --- | --- | --- | --- | --- | --- | --- | --- | --- | --- | --- | --- | --- | --- | --- |
| CCN(CC)C(=O)[C@@H]1C=C2c3cccc4[nH]cc(c34)C[C@H]2N(C)C1 [LSD, Lysergic acid diethylamide] | 88.3 | 3.81 | 91.6% and 85.6% and 74.7* % and 83.10% and 92% and 86.1% and 91.7% | 91.8 | 96.6% and 95.7% and 83.2% | 97.8 | 1.99 | 98.2% and 98.3% and 97.2% and 96.8% and 96.2% and 97.7% and 100% | 95.9 | 96.9% and 96.4% and 94.3% | 92.7 | 0.0885 | 96% and 92.9% and 94.5% and 87.6% and 94.4% and 93.3% and 90% | 92.6 | 94% and 93.4% and 90.5% | 96 | −1.51 | 95.9% (2×) and 95.8% and 94.2% and 91.1% and 99.2% and 99.7% | 97.5 | 101% and 94.3% and 97.4% | Accuracy, Intra-assay Mean (ULOQ: 10000 pg/ml, 8 h at RT): 94.9%; Change in concentration [%] (ULOQ: 10000 pg/ml): −1.74%; Accuracy (ULOQ: 10000 pg/ml, 8 h at RT): 94.7% and 93.4% and 94.6% and 96.9% and 95.4% and 95% and 94.3%; Accuracy, Intra-assay Mean (ULOQ: 10000 pg/ml, Baseline): 96.6%; Accuracy (ULOQ: 10000 pg/ml, Baseline): 94.7% and 94.9% and 100%; Change in plasma concentration after 8 hours storage at room temperature: ≤ 3.81% |
| CCN(CC)C(=O)C1C=C2c3cccc4c3C(O)(C[C@H]2N(C)C1)C(=O)N4 (some centres unmarked) [O-H-LSD, 2,3-dihydro-3-hydroxy-2-oxo lysergide] | 91.2 | 0.176 | 90.4% and 94.3% and 63.8* % and 77.5* % and 83.1% and 101% and 87.9% | 91.1 | 95% and 88.9% and 89.4% | 95.1 | −1.51 | 96% and 100% and 91.8% and 94.6% and 93.6% and 95.8% and 93.9% | 96.6 | 97.7% and 96.2% and 95.9% | 96.4 | 1.1 | 89.2% and 93.3% and 97.6% and 102% and 103% and 97.1% and 91.9% | 95.3 | 94.7% and 91.5% and 99.8% | 95.8 | 0.652 | 97.1% and 91.5% and 95.2% and 98.3% and 94.6% and 99.6% and 94.5% | 95.2 | 95.7% and 98.6% and 91.4% | Found at, Intra-assay Mean (LLOQ: 10 pg/ml, 8 h at RT): 9.13 pg/mL; Found at, Intra-assay Mean (LLOQ: 10 pg/ml, Baseline): 9.11 pg/mL; Found at, Intra-assay Mean (QCHIGH: 1000 pg/ml, 8 h at RT): 951 pg/mL; Found at, Intra-assay Mean (QCHIGH: 1000 pg/ml, Baseline): 966 pg/mL; Found at, Intra-assay Mean (QCLOW: 25 pg/ml, 8 h at RT): 24.1 pg/mL; Found at, Intra-assay Mean (QCLOW: 25 pg/ml, Baseline): 23.8 pg/mL; Found at, Intra-assay Mean (QCMID: 100 pg/ml, 8 h at RT): 95.8 pg/mL; Found at, Intra-assay Mean (QCMID: 100 pg/ml, Baseline): 95.2 pg/mL; Accuracy, Intra-assay Mean (ULOQ: 10000 pg/ml, 8 h at RT): 91.1%; Found at, Intra-assay Mean (ULOQ: 10000 pg/ml, 8 h at RT): 9110 pg/mL; Change in concentration [%] (ULOQ: 10000 pg/ml): −4.52%; Accuracy (ULOQ: 10000 pg/ml, 8 h at RT): 90.2% and 93% and 90.7% and 88.2% and 93.2% and 91.5% and 91.1%; Accuracy, Intra-assay Mean (ULOQ: 10000 pg/ml, Baseline): 95.4%; Found at, Intra-assay Mean (ULOQ: 10000 pg/ml, Baseline): 9540 pg/mL; Accuracy (ULOQ: 10000 pg/ml, Baseline): 94.2% and 92.3% and 99.7%; Change in plasma concentration after 8 hours storage at room temperature: ≤ 4.52% |
